Legend:
[1] = Hemolysis assay (endosomal escape ability of LNPs); format: cell-based; settings: pH 7.4; LNPs formulated with the lipid
Description: (§1) The formulation was kept at 4° C. until used in the luciferase expression assay to evaluate LNP's potency, and for toxicity using LDH assay in the HeLa and HEK293 cells. LNPs were used in the TNS assay to determine the experimental (apparent) pKa of the ionizable lipid. Hemolysis assay was used to determine the indirect endosomal escape (EE) capability of the LNPs. LNPs were evaluated in vivo for luciferase expression 6 h and 24 h post-dose in mice through i.m. injection at […]. Mice were sacrificed at the end point and then organs were harvested for ex-vivo imaging.
FIG. 6 illustrates endosomal escape ability of LNPs formulated using the ionizable lipids using a hemolysis assay.

mice = assay: Animal luciferase expression study, intramuscular injection, IVIS imaging; format: in vivo; settings: i.m., 5 μg of mRNA per mouse, organs at 24 h, compared to all GIL-133 formulations
Description: as §1
These samples were injected to mice through intramuscular injection at the leg site at a dose of 5 μg of mRNA per mouse. Compositions with control LNP of FIG. 7 were used as positive control. At 6 h and 24 h post injection, the mice were subjected to IVIS imaging system to take the whole-body image. […] The same trend was found in the whole-body imaging results.
At 24 h, the mice were sacrificed, and the main organs include heart, liver, spleen, lung, kidneys, muscle, dLNs and ndLNs were collected and imaged. […] All results are shown in 11A, 11B, 11C, 11D, and 11E.

Hek 293 FT cells = assay: LDH toxicity assay; format: cell-based; settings: two separate batches
Description: GILP-133 was tested in an assay to measure the level of lactate dehydrogenase (LDH), also known as lactic acid dehydrogenase. The LDH assay protocol is based on an enzymatic coupling reaction: LDH released from the cell oxidizes lactate to generate NADH, which then reacts with WST to generate a yellow color. The intensity of the generated color correlates directly with the number of lysed cells. This gives an indication of cytotoxicity, looking at the % of viable cells remaining. In this testing, Hek 293 FT cells were used 10 uL 1% Triton was added to positive control wells and incubated for 5 min. 50 uL cell culture medium was transferred to black 96-well plate. 50 uL LDH assay solution is added and incubated for 10 min at room temperature. Subsequently 50 ul stop solution was added and fluorescence intensity was read using a microplate reader.

In the case of CCCCCCCCC(CCCCCC)C(=O)OCCCCCCCN(C)CCCN(C)CCCCCCCOC(=O)C(CCCCCC)CCCCCCCC (centres unmarked) [GILP-124, (propane-1,3-diylbis(methylazanediyl))bis(heptane-7,1-diyl)bis(2-hexyldecanoate)], the “hemolysis at neutral pH” value [1] is reported as “negligible hemolysis”.
For CCCCCCCCC(CCCCCC)C(=O)OCCCCCCCN(CC)CCCN(CC)CCCCCCCOC(=O)C(CCCCCC)CCCCCCCC (centres unmarked) [GILP-126, (propane-1,3-diylbis(ethylazanediyl))bis(heptane-7,1-diyl)bis(2-hexyldecanoate)], the “hemolysis at neutral pH” value [1] was “negligible hemolysis”.
With CCCCCCCCCCCOC(=O)CCCCCN(CCO)CCCCCCCC(=O)OC(CCCCCCCC)CCCCCCCC [positive control, heptadecan-9-yl 8-[2-hydroxyethyl-(6-oxo-6-undecoxyhexyl)amino]octanoate] the “luciferase expression in ndLNs” value (mice) was “higher level of luciferase expression” and the “luciferase expression in spleen” value (mice) was “higher level of luciferase expression”.
In the case of CCCCCCCCC(CCCCCC)C(=O)OCCCCCCCN(C)[C@@H]1CCCC[C@H]1N(C)CCCCCCCOC(=O)C(CCCCCC)CCCCCCCC (stereo partly drawn) [GILP-133, (((1R,2S)-cyclohexane-1,2-diyl)bis(methylazanediyl))bis(heptane-7,1-diyl)bis(2-hexyldecanoate)], the “% cell viability compared to control cationic lipid of FIG. 7” value (Hek 293 FT cells) is reported as “equivalent % cell viability”.

From patent publication US20250275918A1, “LIPID COMPOSITIONS AND METHODS FOR NUCLEIC ACID DELIVERY” (GREENLIGHT BIOSCIENCES, INC., priority 2022, published 2025)
